These results are taken from BindingDB's records for doi:10.1016/j.bmcl.2016.03.009 (Toray Industries, 2016).

By IC50 is commonly meant the midpoint of a concentration-inhibition curve.

The test is described as follows: Agonist activity at human IP receptor in platelet rich plasma assessed as inhibition of ADP-induced platelet aggregation preincubated for 1 min followed by addition of ADP by aggregometry.
As for `O=C(O)COc1ccc(CCN(C(=O)c2ccccc2)c2ccc(Cl)cc2)cc1`, the IC50 amounted to 740 nM.

`O=C(O)COc1cccc(CCN(C(=O)c2ccccc2)c2ccc(Cl)cc2)c1`: the concentration for half-maximal inhibition (IC50) was more than 30000 nM.

Take `O=C(O)COc1ccc(CCCN(C(=O)c2ccccc2)c2ccc(Cl)cc2)cc1`: the IC50 turned out to be 20000 nM.

As to `O=C(O)COc1ccc(CN(C(=O)c2ccccc2)c2ccc(Cl)cc2)cc1`, the IC50 is more than 30000 nM.

For `O=C(O)COc1cccc2c1OCCN2CCN(C(=O)c1ccccc1)c1ccc(Cl)cc1`, the IC50 came to 13 nM.

For `O=C(O)COC1CCC(=CCN(C(=O)c2ccccc2)c2ccc(Cl)cc2)CC1` (stereo not given), the IC50 worked out at 320 nM.

For the molecule `O=C(O)COC1CCN(CCN(C(=O)c2ccccc2)c2ccc(Cl)cc2)CC1`, the IC50 came to 440 nM.

Consider `O=C(O)COC1CCN(CCN(C(=O)c2ccccc2)c2ccc(Cl)cc2)C1` (stereo not given), for which the IC50 stood at 23000 nM.

Take `O=C(O)COC1CCN(CCN(C(=O)c2ccccc2)c2ccccc2)CC1`: the IC50 turned out to be 3200 nM.

For the molecule `Cc1ccc(N(CCN2CCC(OCC(=O)O)CC2)C(=O)c2ccccc2)cc1`, the 50% inhibitory concentration (IC50) is 130 nM.

Turning to `COc1ccc(N(CCN2CCC(OCC(=O)O)CC2)C(=O)c2ccccc2)cc1`, the 50% inhibitory concentration (IC50) worked out at 900 nM.

Take `O=C(O)COC1CCN(CCN(C(=O)c2ccccc2)c2ccc(N3CCCC3)cc2)CC1`: the 50% inhibitory concentration (IC50) is more than 1000 nM.

For the molecule `Cc1cc(C)c(N(CCN2CCC(OCC(=O)O)CC2)C(=O)c2ccccc2)c(C)c1`, the IC50 was more than 1000 nM.

As for `Cc1ccc(N(CCN2CCC(OCC(=O)O)CC2)C(=O)c2ccccc2)c(C)c1`, the IC50 is more than 1000 nM.

For `Cc1cccc(N(CCN2CCC(OCC(=O)O)CC2)C(=O)c2ccccc2)c1`, the IC50 was more than 1000 nM.

On to `Cc1ccccc1N(CCN1CCC(OCC(=O)O)CC1)C(=O)c1ccccc1`, for which the IC50 was more than 1000 nM.

Turning to `CC(C)c1ccc(N(CCN2CCC(OCC(=O)O)CC2)C(=O)c2ccccc2)cc1`, the IC50 is more than 1000 nM.

Turning to `CCCCc1ccc(N(CCN2CCC(OCC(=O)O)CC2)C(=O)c2ccccc2)cc1`, the IC50 was more than 1000 nM.

With `CCCc1ccc(N(CCN2CCC(OCC(=O)O)CC2)C(=O)c2ccccc2)cc1`, the half-maximal inhibitory concentration (IC50) worked out at 1000 nM.

Turning to `CCc1ccc(N(CCN2CCC(OCC(=O)O)CC2)C(=O)c2ccccc2)cc1`, the 50% inhibitory concentration (IC50) was determined as 430 nM.
